Source: ChEMBL document CHEMBL1121937, “Stereochemical studies on medicinal agents. 25. Absolute configuration and analgetic potency of beta-1,2-dimethyl-2-phenyl-4-(propionyloxy)piperidine enantiomers” (J Med Chem, 1982)

How the values were obtained:
[1] = test system: Mus musculus; test: Effective dose required for analgesic potency in the hotplate procedure after sc injection into mice.; format: functional
[2] = biological target: Opioid receptors; mu/kappa/delta (Homo sapiens, UniProt P41145+P41143+P35372); test: Ability to displace [3H]etorphine from Opioid receptors in guinea pig brain; set-up: species or system Cavia porcellus

Structure (SMILES)	ED50 [1]	IC50 [2]
CCOC(=O)C1(c2ccccc2)CCN(C)CC1 [MEPERIDINE]	1.3 mg/kg	
CCC(=O)O[C@]1(c2ccccc2)CCN(C)[C@@H](C)C1	0.53 mg/kg	1.2 µM
CN1CC[C@]23c4c5ccc(O)c4O[C@H]2[C@@H](O)C=C[C@H]3[C@H]1C5 [MORPHINE]	1.2 mg/kg	
CCC(=O)O[C@@]1(c2ccccc2)CCN(C)C(C)C1 (single isomer, unassigned; (+))	5.5 mg/kg	11 µM
CCC(=O)OC1(c2ccccc2)CCN(C)C(C)C1 (racemic)	0.52 mg/kg	2 µM
